This test relates to P388 leukemia ip, CD2F1 mice, survival T/C. Kind of test: NCI In Vivo Anticancer Drug Screen. Data for tumor model P388 Leukemia (intraperitoneal) in CD2F1 (CDF1) mice. The conditions noted are these: endpoint: median survival time, higher = longer survival. The procedure, abridged:
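Mice carrying the transplanted tumor received test compound or vehicle. Survival was recorded in each group, and the value is the treated-group measurement divided by that of the vehicle-treated control group.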

Setting [1] is: dose: 100.0 mg/kg/injection, schedule: Q01DX001 (ip), vehicle: saline.
[2] abbreviates: dose: 60.0 mg/kg/injection, schedule: Q01DX005 (ip), vehicle: saline with Tween-80.
Setting [3] is: dose: 120.0 mg/kg/injection, schedule: Q01DX005 (ip), vehicle: saline with Tween-80.
The mark [4] stands for this setting: dose: 240.0 mg/kg/injection, schedule: Q01DX005 (ip), vehicle: saline with Tween-80.
Setting [5] is: dose: 200.0 mg/kg/injection, schedule: Q01DX001 (ip), vehicle: saline.
[6] abbreviates: dose: 100.0 mg/kg/injection, schedule: Q01DX009 (ip), vehicle: saline with Tween-80.
Where [7] appears, read: dose: 200.0 mg/kg/injection, schedule: Q01DX009 (ip), vehicle: saline with Tween-80.
[8] abbreviates: dose: 400.0 mg/kg/injection, schedule: Q01DX009 (ip), vehicle: saline with Tween-80.
Where [9] appears, read: dose: 50.0 mg/kg/injection, schedule: Q01DX005 (ip), vehicle: saline with Tween-80.
Where [10] appears, read: dose: 100.0 mg/kg/injection, schedule: Q01DX005 (ip), vehicle: saline with Tween-80.
Setting [11] is: dose: 200.0 mg/kg/injection, schedule: Q01DX005 (ip), vehicle: saline with Tween-80.

Where “and” joins values, the source holds several entries; their conditions need not be identical. Identical values can stand only once. Toxic doses and inconclusive results are not listed.

Consider `CN(C)CCNc1ccc(O)c2c1C(=O)c1ccccc1C2=O`, for which the T/C (dose: 5.0 mg/kg/injection, schedule: Q01DX009 (ip), vehicle: acid diluted with saline) was 104 % of control; the T/C (dose: 10.0 mg/kg/injection, schedule: Q01DX009 (ip), vehicle: acid diluted with saline) is 100 % of control; the T/C (dose: 20.0 mg/kg/injection, schedule: Q01DX009 (ip), vehicle: acid diluted with saline) was 100 % of control; the T/C (dose: 20.0 mg/kg/injection, schedule: Q01DX009 (ip), vehicle: distilled water + Tween-80) was 110 % of control; the T/C (dose: 40.0 mg/kg/injection, schedule: Q01DX009 (ip), vehicle: acid diluted with saline) was 124 % of control; the T/C (dose: 40.0 mg/kg/injection, schedule: Q01DX009 (ip), vehicle: distilled water + Tween-80) is 117 % of control. For the same compound, the T/C (dose: 80.0 mg/kg/injection, schedule: Q01DX009 (ip), vehicle: acid diluted with saline) was 153 % of control and the T/C (dose: 160.0 mg/kg/injection, schedule: Q01DX009 (ip), vehicle: distilled water + Tween-80) is 153 % of control.
With `O=C(O)Cc1cn2ccncc2n1`, the T/C (dose: 100.0 mg/kg/injection, schedule: Q01DX001 (ip), vehicle: Klucel (hydroxypropylcellulose) (HPC)) is 90 % of control; the T/C (dose: 200.0 mg/kg/injection, schedule: Q01DX001 (ip), vehicle: Klucel (hydroxypropylcellulose) (HPC)) was 101 % of control; the T/C (dose: 400.0 mg/kg/injection, schedule: Q01DX001 (ip), vehicle: Klucel (hydroxypropylcellulose) (HPC)) is 101 % of control.
Turning to `O=S(=O)(O)Oc1c(S(=O)(=O)O)c(S(=O)(=O)O)c(O)c(S(=O)(=O)O)c1S(=O)(=O)O`, the T/C was 111 % of control (dose: 25.0 mg/kg/injection, schedule: Q01DX001 (ip), vehicle: saline); 113 % of control (dose: 50.0 mg/kg/injection, schedule: Q01DX001 (ip), vehicle: saline); 103 % of control (dose: 100.0 mg/kg/injection, schedule: Q01DX001 (ip), vehicle: saline with Tween-80); 94 % of control under setting [1].
As for `O=C(c1ccccc1)c1cc(Cl)ccc1NCC(O)COc1ccc(Cl)cc1` (configuration not stated), the T/C is 93 % of control under setting [2], 89 % of control under setting [3] and 88 % of control under setting [4].
The like results for `COC(=O)/C(=C/c1ccc(/C=C(/C(=O)O)c2ccc(OC)cc2)o1)c1ccccc1` were, in that order, 97 % of control, 100 % of control and 90 % of control.
In the case of `CC(=O)Oc1c(I)cc(Cc2nc(C)oc2C)cc1I`, the T/C under setting [1] is 99 % of control; the T/C under setting [5] is 102 % of control; the T/C (dose: 400.0 mg/kg/injection, schedule: Q01DX001 (ip), vehicle: saline) is 102 % of control.
As for `O=[n+]1cc2ccccn2cc1-c1ccccc1`, the T/C reads like this: under setting [6], 90 % of control; under setting [7], 95 % of control; under setting [8], 118 % of control.
For `CCOCc1nc(N)nc(N)c1-c1cccc(Cl)c1`, the T/C was 100 % of control under setting [2] and 102 % of control under setting [3].
As for `NC=O`, the T/C runs as follows: under setting [6], 109 % of control; (dose: 100.0 mg/kg/injection, schedule: Q04DX003 (ip), vehicle: saline) 100 % of control; under setting [7], 118 % of control; (dose: 200.0 mg/kg/injection, schedule: Q04DX003 (ip), vehicle: saline) 100 % of control; under setting [8], 118 % of control; (dose: 400.0 mg/kg/injection, schedule: Q04DX003 (ip), vehicle: saline) 118 % of control.
On to `CC(C)[NH-].CC(C)[NH-].[Cl][Pt+2]([Cl])([Cl])[Cl]`, for which the T/C reads like this: (dose: 22.0 mg/kg/injection, schedule: Q01DX009 (ip), vehicle: saline with Tween-80) 155 % of control; (dose: 33.0 mg/kg/injection, schedule: Q01DX009 (ip), vehicle: saline with Tween-80) 165 % of control; (dose: 50.0 mg/kg/injection, schedule: Q01DX009 (ip), vehicle: saline with Tween-80) 152 % of control.
For the compound `CCCCN1CSC(=S)N(Cc2ccccc2)C1`, the T/C reads like this: (dose: 50.0 mg/kg/injection, schedule: Q01DX009 (ip), vehicle: other) 115 % of control; (dose: 100.0 mg/kg/injection, schedule: Q01DX009 (ip), vehicle: other) 108 % of control; (dose: 200.0 mg/kg/injection, schedule: Q01DX009 (ip), vehicle: other) 92 % of control.
With `C#CCN1c2c(nc(N)[nH]c2=O)NCC1CNc1ccc(C(=O)NC(CCC(=O)O)C(=O)O)cc1` (configuration not stated), the T/C is 105 % of control (dose: 50.0 mg/kg/injection, schedule: Q01DX005 (ip), vehicle: alkali diluted with saline); 92 % of control (dose: 100.0 mg/kg/injection, schedule: Q01DX005 (ip), vehicle: alkali diluted with saline); 105 % of control (dose: 200.0 mg/kg/injection, schedule: Q01DX005 (ip), vehicle: alkali diluted with saline).
With `CCCC(CCC)(C(=O)Nc1ccc2nc(C)cc(N)c2c1)C(=O)Nc1ccc2nc(C)cc(N)c2c1`, the T/C was 91 % of control under setting [9] and 96 % of control under setting [10].
In the case of `S=C1SCN(c2ccc(Br)cc2)CN1c1ccc2[nH]c(=S)sc2c1`, the T/C reads like this: (dose: 6.25 mg/kg/injection, schedule: Q01DX009 (ip), vehicle: Klucel (hydroxypropylcellulose) (HPC)) 106 % of control; (dose: 12.5 mg/kg/injection, schedule: Q01DX009 (ip), vehicle: Klucel (hydroxypropylcellulose) (HPC)) 113 % of control; (dose: 25.0 mg/kg/injection, schedule: Q01DX009 (ip), vehicle: Klucel (hydroxypropylcellulose) (HPC)) 106 % of control.
For `COP(=O)(CC(=O)OC(CC(=O)OCc1ccccc1)C(=O)OCc1ccccc1)OC` (configuration not stated), the T/C was 98 % of control under setting [9], 92 % of control under setting [10] and 93 % of control under setting [11].
Turning to `NP(=O)(OCCC(=O)c1ccccc1)N(CCCl)CCCl` (configuration not stated), the T/C was 163 % of control (dose: 25.0 mg/kg/injection, schedule: Q04DX002 (ip), vehicle: saline with Tween-80); 223 % of control (dose: 50.0 mg/kg/injection, schedule: Q04DX002 (ip), vehicle: saline with Tween-80); 221 % of control and 92 % of control (dose: 100.0 mg/kg/injection, schedule: Q04DX002 (ip), vehicle: saline with Tween-80); 89 % of control (dose: 200.0 mg/kg/injection, schedule: Q04DX002 (ip), vehicle: saline with Tween-80).
Consider `CC(=O)NC(CC(C)C)C(=O)NC(CC(C)C)C(=O)NC(C=O)CCCN=C(N)N` (configuration not stated), for which the T/C was 106 % of control under setting [1] and 105 % of control under setting [5].
Take `C=CC1=C(C)C2=NC1=CC1=NC(=CC3=C(C)C4=C(O)C(C(=O)O)C(=C5NC(=C2)C(C)C5CCC(=O)O)C4=N3)C(CC)=C1C` (configuration not stated): the T/C was 98 % of control (dose: 50.0 mg/kg/injection, schedule: Q01DX005 (ip), vehicle: suspension in saline); 103 % of control (dose: 100.0 mg/kg/injection, schedule: Q01DX005 (ip), vehicle: suspension in saline); 98 % of control (dose: 200.0 mg/kg/injection, schedule: Q01DX005 (ip), vehicle: suspension in saline).
Turning to `Nc1nc2cc3[nH]ncc3cc2c(=O)[nH]1`, the T/C (dose: 12.5 mg/kg/injection, schedule: Q01DX005 (ip), vehicle: saline with Tween-80) was 98 % of control; the T/C (dose: 25.0 mg/kg/injection, schedule: Q01DX005 (ip), vehicle: saline with Tween-80) was 91 % of control; the T/C under setting [9] was 94 % of control and 97 % of control; the T/C under setting [10] was 101 % of control; the T/C under setting [11] was 102 % of control.
Turning to `O=C1c2cccnc2C(=O)C2CC3=C(CCCC3)CC12` (configuration not stated), the T/C reads like this: under setting [9], 100 % of control; under setting [10], 100 % of control; under setting [11], 100 % of control.
Turning to `CC(OC(=O)c1ccccc1C(=O)O)c1ccccc1` (configuration not stated), the T/C is, setting by setting: (dose: 12.5 mg/kg/injection, schedule: Q01DX009 (ip), vehicle: saline) 91 % of control; (dose: 25.0 mg/kg/injection, schedule: Q01DX009 (ip), vehicle: saline) 99 % of control and 101 % of control; (dose: 50.0 mg/kg/injection, schedule: Q01DX009 (ip), vehicle: saline) 101 % of control and 108 % of control and 98 % of control; (dose: 100.0 mg/kg/injection, schedule: Q01DX009 (ip), vehicle: saline) 104 % of control; (dose: 200.0 mg/kg/injection, schedule: Q01DX009 (ip), vehicle: saline) 186 % of control.
As for `O=C(Nc1ccc([N+](=O)[O-])cc1)OCCI`, the T/C was 101 % of control (dose: 100.0 mg/kg/injection, schedule: Q04DX003 (ip), vehicle: saline with Tween-80); 92 % of control (dose: 200.0 mg/kg/injection, schedule: Q04DX003 (ip), vehicle: saline with Tween-80); 92 % of control (dose: 400.0 mg/kg/injection, schedule: Q04DX003 (ip), vehicle: saline with Tween-80).

The values are drawn from PubChem BioAssay AID330 (DTP/NCI, 2004).
